According to publication PMC11181322, “Copper(II) Complexes with Isomeric Morpholine-Substituted 2-Formylpyridine Thiosemicarbazone Hybrids as Potential Anticancer Drugs Inhibiting Both Ribonucleotide Reductase and Tubulin Polymerization: The Morpholine Position Matters” (Journal of Medicinal Chemistry, 2024):

What was measured:
[1] = Conditional stability constants of the copper(II) complexes by EDTA displacement (UV–vis); format: physicochemical; settings: for logK′5.9 (DMSO/H2O) / logK′5.9 (H2O): EDTA displacement, UV–vis, 25 °C; for logK′5.9 (DMSO/H2O): pH 5.9, 30% (v/v) DMSO/H2O; for logK′5.9 (H2O): pH 5.9, water, I = 0.1 M (KCl); for pCu5.9 (=–log[Cu(II)]): calcd. at pH 5.9, cL = cCu(II) = 1 μM
Procedure: The stability constants of 3–6 were determined by EDTA competition experiments monitored by UV–vis spectrophotometry at pH 5.9, where the [Cu(HL)]^+ species is dominant. Since the displacement of the TSC ligand by EDTA is relatively slow, a 2 h reaction time was used to reach equilibrium. Upon increasing the concentration of EDTA, the absorbance of the characteristic S → Cu charge transfer band at 400–416 nm decreased (see, for example, Figure 3 for the copper(II)–H2L^4 (1:1) system).[68] The experiments were performed in both aqueous solution and the 30% (v/v) DMSO/H2O solvent mixture. The determined conditional (apparent) formation constants (log K′5.9) are rather similar (see Table 2) in both media. However, the values are lower in the DMSO/H2O solvent mixture than in aqueous solution, presumably due to coordination of DMSO to copper(II). An analogous observation was reported for the copper(II) complex of Triapine.[67] […] To compare the copper(II) binding ability of the studied TSCs H2L^3–H2L^6 at pH 5.9 (at which the conditional constants were determined), pCu (−log [Cu(II)]) values were also computed using the experimentally determined equilibrium constants (Table 2). The higher pCu value indicates a stronger metal ion binding ability of the ligand under given circumstances. The ligands form complexes with fairly similar stability, in agreement with the conditional stability constants. […] A similar behavior was reported for aqueous solutions of the N-terminally dimethylated derivative of the 2-pyridinecarboxaldehyde TSC (PTSC)[69] and for the corresponding morpholine-hybrid Morph-dm-FTSC.[52] In particular, the calculated pCu values were also very close, 13.17 for PTSC vs 13.08 for Morph-dm-FTSC calculated at pH 7.4.
The path length was 1 cm.

[2] = pKa of the copper(II) complexes (UV–vis / pH-potentiometric titrations); settings: 30% (v/v) DMSO/H2O, 25 °C
Procedure: The solution speciation of copper(II) complexes with H2L^3–H2L^6 was studied primarily by UV–vis spectrophotometric titrations in a 30% (v/v) DMSO/H2O solvent mixture as a function of pH.
An Agilent Carry 8454 diode array spectrophotometer was used to record the UV–vis spectra in the interval 200–800 nm. The path length was 1 cm. Proton dissociation constants (pKa) of the proligands and complexes were calculated by the computer program PSEQUAD.[94] Spectrophotometric titrations were performed on samples containing the proligands at a 50–100 μM concentration with a KOH solution in the presence of 0.1 M KCl at 25.0 ± 0.1 °C in the pH range from 2 to 11.5 in a 30% (v/v) DMSO/H2O solvent mixture, and the metal-to-ligand ratios were 1:0, 1:1, and 1:2. An Orion 710A pH meter equipped with a Metrohm combined electrode (type 6.0234.100) and a Metrohm 665 Dosimat buret were used for the titrations. […] Ar was also passed over the solutions during the titrations. Measurements were carried out in the range ca. 1.0–2.0 by preparing individual samples, in which KCl was partially or completely replaced by HCl, and pH values were calculated from the strong acid content. The conditional stability constants (K′) of the copper(II) complexes were calculated at pH 5.90 based on the spectral changes via the displacement reaction with EDTA in the presence 50 mM MES and 0.1 M KCl in water or in 30% (v/v) DMSO/H2O. In the competition experiments, the samples contained 25 μM copper(II) and 25 μM proligand, and the concentration of EDTA was varied from 0 to 400 μM. The conditional stability constants of the metal complexes (K′) and the individual spectra of the species were calculated by the computer program PSEQUAD.[94]

MES-SA cells [3] = assay: Cell cycle analysis, MES-SA; format: cell-based, human; settings: for G0/G1 / G2/M / S: MES-SA
Procedure: (§1) Cell cycle arrest in S-phase has been observed for Triapine analogues at concentrations ranging from 0.25 to 5.0 μM,[82],[83] in line with a mechanism of action relying on RNR inhibition.
(§2) Figure S18. Cell cycle arrest for (a) proligand H2L4 and (b) complex 4 in MES-SA cells, as
(§3) well as for (c) proligand H2L4 and (d) complex 4 in the MES-SA/Dx5 cancer cell line.
(§4) Table S4. Cell cycle arrest for proligand H2L4 and complex 4 in the MES-SA and MES-
(§5) SA/Dx5 cancer cell lines.
(§6) H2L4 (MES-SA) H2L4 (MES-SA/Dx5) complex 4 (MES-SA) complex 4 (MES-SA/Dx5)
(§7) Table S5. Cell cycle arrest for proligand H2L6 and complex 6 in the MES-SA and MES-
(§8) H2L6 (MES-SA) H2L6 (MES-SA/Dx5) complex 6 (MES-SA) complex 6 (MES-SA/Dx5)
(§9) (1 picture or pasted object on this page, not shown here)

MES-SA cells [4] = assay: Intracellular ROS generation, DCF-DA assay, MES-SA; format: cell-based, human; settings: 25 μM, 4 h treatment
Procedure: (§10) ROS accumulation was evaluated in both the MES-SA and MES-SA/Dx5 cell lines by using 2′,7′-dichlorodihydrofluorescein diacetate (H2DCF-DA) as a probe. This compound enters the cells by passive diffusion, and after oxidation, it is converted to the highly fluorescent 2′,7′-dichlorofluorescein (DCF), enabling the estimation of intracellular ROS levels. ROS generation was measured after a 4 h treatment with 25 μM H2L^6 or 6; tert-butylhydroperoxide (TBHP, 25 μM) was used as a positive control.
(§11) Figure 6 Intracellular ROS generation measured by the DCF-DA assay in MES-SA (filled bars) and MES-SA/Dx5 (lattice bars) cells, after a 4 h treatment with the indicated compounds at 25 μM: H2L^6 (gray), complex 6 (yellow), Triapine (green), and TBHP (brown). Values indicate fold change relative to the fluorescence of the cells treated with fluorescent probe alone (orange bars), following normalization to the initial fluorescence at the beginning of the incubation. Paired t test to the medium control was calculated; […]; **P < 0.01. Values were calculated from at least three independent experiments.
(§12) The human uterine sarcoma cell lines MES-SA and the doxorubicin selected MES-SA-Dx5 were obtained from ATCC (MES-SA: No. CRL-1976, MES-SA/Dx5: No. CRL-1977) and were used for the intracellular ROS generation studies. […]

MES-SA/Dx5 cells [5] = assay: Intracellular ROS generation, DCF-DA assay, MES-SA/Dx5; format: cell-based, human; settings: 25 μM, 4 h treatment
Procedure: as §10, §11, §12

MES-SA/Dx5 cells [6] = assay: Cell cycle analysis, MES-SA/Dx5; format: cell-based, human
Procedure: as §1, §2, §3, §4, §5, §6, §7, §8, §9

[7] = cell line not given (figures: MES-SA and MES-SA/Dx5)

## Cc1cc(NC(=NN=Cc2ccc(CN3CCOCC3)cn2)[S][Cu][Cl])cc(C)c1O [complex 5, [Cu(HL^5)Cl]·2.5H2O]
[1]
  logK′5.9 (DMSO/H2O): 9.99 ± 0.01
  logK′5.9 (H2O): 13.39 ± 0.01
  pCu5.9 (=–log[Cu(II)]): 8.02
[2]; UV–vis spectrophotometry
  pKa[Cu(H2L)]2+: 4.75 ± 0.01
[2]; pH potentiometry
  pKa[Cu(H2L)]2+: 4.95 ± 0.04

## Cc1cc(NC(=NN=Cc2cccc(CN3CCOCC3)n2)[S][Cu][Cl])cc(C)c1O [complex 6, [Cu(HL^6)Cl]·H2O]
[1]
  logK′5.9 (DMSO/H2O): 10.09 ± 0.04
  logK′5.9 (H2O): 13.73 ± 0.02
  pCu5.9 (=–log[Cu(II)]): 8.07
MES-SA cells [3]; 2 µM
  G0/G1: 74%
  G2/M: 17%
  S: 9%
MES-SA cells [3]; 4 µM
  G0/G1: 35%
  G2/M: 55%
  S: 11%
MES-SA cells [3]; 8 µM
  G0/G1: 24%
  G2/M: 68%
  S: 8%
MES-SA cells [3]; [7]
  concentrations inducing G2/M-phase arrest: ≥ 4 µM
MES-SA cells [4]
  Intracellular ROS generation: significant ROS induction
MES-SA/Dx5 cells [5]
  Intracellular ROS generation: significant ROS induction
MES-SA/Dx5 cells [6]; MES-SA/Dx5, 2 µM
  G0/G1: 53%
  G2/M: 35%
  S: 12%
MES-SA/Dx5 cells [6]; MES-SA/Dx5, 4 µM
  G0/G1: 39%
  G2/M: 48%
  S: 12%
MES-SA/Dx5 cells [6]; MES-SA/Dx5, 8 µM
  G0/G1: 21%
  G2/M: 68%
  S: 11%

## Cc1cc(NC(=NN=Cc2cc(CN3CCOCC3)ccn2)[S][Cu][Cl])cc(C)c1O [complex 4, [Cu(HL^4)Cl]·1.5H2O]
[1]
  logK′5.9 (DMSO/H2O): 10.07 ± 0.01
  logK′5.9 (H2O): 13.35 ± 0.02
  pCu5.9 (=–log[Cu(II)]): 8.06
MES-SA cells [3]; 2 µM
  G0/G1: 63%
  G2/M: 21%
  S: 16%
MES-SA cells [3]; 4 µM
  G0/G1: 56%
  G2/M: 25%
  S: 19%
MES-SA cells [3]; 8 µM
  G0/G1: 50%
  G2/M: 30%
  S: 20%
MES-SA cells [3]; [7]
  cell cycle effect: gradually increased the G2/M ratio in a concentration-dependent manner
[2]; UV–vis spectrophotometry
  pKa[Cu(H2L)]2+: 4.48 ± 0.01
[2]; pH potentiometry
  pKa[Cu(H2L)]2+: 4.60 ± 0.02
MES-SA/Dx5 cells [6]; MES-SA/Dx5, 2 µM
  G0/G1: 48%
  G2/M: 32%
  S: 20%
MES-SA/Dx5 cells [6]; MES-SA/Dx5, 4 µM
  G0/G1: 43%
  G2/M: 36%
  S: 21%
MES-SA/Dx5 cells [6]; MES-SA/Dx5, 8 µM
  G0/G1: 47%
  G2/M: 36%
  S: 16%
